# Experimental data: paper PMC4683533, “Discovery of novel INK4C small-molecule inhibitors to promote human and murine hematopoietic stem cell ex vivo expansion” (Scientific Reports, 2015)
# Legend:
# HSCs (CD34−LKS cells) = experiment: single hematopoietic stem cell in vitro culture (nmEM colony) assay; type: cell-based, mouse; details: 12.5 nM, 14-day treatment
# Procedure: We biologically assessed the 22 putative p18SMI compounds for their ability to maintain HSCs stem cell characteristics, to be specific self-renewal and multi-lineage differentiation, using single cell cultures. […] Thus, we employed single HSC culture to assess p18SMI compounds’ effect upon HSCs. CD34^−LKS cells from C57BL/6 mice were individually deposited into a 96-well plate (one cell/well). The single cell was cultured for 14 days in 100 μL of serum-free medium (Gibco) containing 100 ng/mL of mouse stem cell factor (SCF), 10 ng/mL of mouse interleukin-3 (IL-3), 25 ng/mL of human thrombopoietin (TPO), 2 U/mL of human erythropoietin (EPO) and differing concentrations of the p18SMI compound. Cells were cultured 14 days for in vitro colony formation and colonies were then cytospined and analyzed by flow cytometry to test the subpopulation of cultured cells. Neutrophils (n), macrophages (m), erythroblasts (E) or megakaryocytes (M) were identified by the cell marker of Gr-1, Mac-1, Ter-119 and CD41 using flow cytometry. The wells from each group that generated all lineages (nmEM) were counted and the ratio to the control group (DMSO) was calculated.
# Single CD34^-LKS cells from C57BL/6 mice were individually deposited into each well of a 96-well plate along with 100 μL of serum free medium (Gibco) containing 100 ng/mL of mouse SCF, 10 ng/mL of mouse IL-3, 25 ng/mL of human TPO, 2 U/mL of human EPO and p18SMI compounds (different dilutions). Cells were cultured in a 37 °C, 5% CO2 incubator for 14 days for ex vivo colony formation. Colonies were then cytospined and analyzed using flow cytometry. Neutrophils (n), macrophages (m), erythroblasts (E) or megakaryocytes (M) were identified based on their cell surface maker, Gr-1, Mac-1, Ter119 and CD41. Cells were measured on an FACS analyzer (FACSArray, BD Biosciences). […] The wells from each group that generated all lineages (nmEM) were counted. The ratio of p18SMI compound treatment group to the control group (DMSO-treated) was calculated and fitted to a curve to calculate the ED50 value using GraphPad Prism v6.0.
# HSCs (bone marrow MNCs) = experiment: cobblestone area forming cells (CAFC) assay with limiting dilution assay (LDA); type: cell-based, mouse; details: day 35
# Procedure: We also investigated whether the increased number of phenotypic SLAM^+LT-HSCs in short-term culture assays was correlated with an increase in functional LT-HSCs. Cobblestone area forming cells (CAFC) assay combined with limiting-dilution assays (LDA) were performed to measure the frequency of HSCs[19][22][30]. Compared with the control group (HSC frequency is 1 in 112,559 of the original plated cells), the frequency of HSC at day 35 (indicating the activity of hematopoietic reconstitution capacity) was 2.7-fold and 3.0-fold higher in the cultures treated with XIE18–6 (HSC frequency is 1 in 42,490 of the original plated cells) and compound 40 (HSC frequency is 1 in 37,524 of the original plated cells) (p < 0.001, Fig. 3C), respectively.
# Freshly isolated bone marrow MNCs from mice, 6–8 weeks old, were plated in a 24-well plate with 1 mL Dexter’s medium at a density of 2 × 10^6 cells per mL in the absence or presence of different doses of the tested compounds. The culture was maintained at 33 °C with 5% CO2. The number of cobblestone areas (CAs) was counted weekly. The medium was also replaced with half fresh medium on a weekly basis. For the limiting dilution analysis (LDA) of the test cells, different limiting doses were plated on the irradiated stromal cells in 96-well plates containing 200 μL of M5300 medium (StemCell Technologies) supplemented with 10^−6 M hydrocortisone. Each group was done with 20 replicates well. Small-molecule compounds were added to the co-culture system at different doses. Half of the medium in each well was replaced with fresh medium containing the test compounds weekly. The existence of CA in each well was evaluated under an inverted microscope at weekly intervals for 5 weeks. Based on the Poisson distribution of the negative wells, the frequency of long-term initiating cells was calculated with L-Calc software (StemCell Technologies).
# [1] = test system: c-Kit-enriched mouse BM cells (HSPC, LT-HSCs); experiment: ex vivo bulk culture of c-Kit-enriched BM cells with flow cytometry phenotyping; type: cell-based; details: 5 days culture with cytokines
# Procedure: To investigate the effect of p18SMI compounds on murine HSCs, c-Kit-enriched mouse BM cells were cultured for 5 days with media containing cytokines and the p18SMI compounds. […] Lin^−Sca-1^+(LS) cells were further analyzed using a combination of CD150 and CD48 (SLAM code) biomarkers for HSC identification. CD150^+ CD48^−KSLs (hereafter referred to as SLAM^+) cells are enriched for long term (LT)-HSCs.
# HSCs expansion medium consists of BIT9500 (Stem Cell Technologies) supplemented with 50 ng/mL recombinant mouse (rm) SCF, 20 ng/mL FMS-like tyrosine kinase 3 ligand (Flt3L) and 10 ng/mL thrombopoietin (Tpo) (all from PeproTech, Inc.). p18SMI compounds were added where indicated. Bone marrow cells were harvested from C57BL/6 mice and made into a single-cell suspension. After immunomagnetic c-Kit enrichment (cKit-conjugated microbeads [MiltenyiBiotec, Bergisch-Gladbach]), cells were washed and resuspended in HSCs expansion medium. After culture, total nucleated cell counts were obtained, and a fraction of mononuclear cells (MNCs) or whole bone marrow cells were stained for flow cytometry analysis. Frequency of each cell population was determined by independently analyzing more than 5 × 10^5 cells per sample in triplicate.
# For stem-cell quantitation, the cultured bone marrow nucleated cells were co-stained with a combination of PE-Cy7 labeled antibodies against mouse CD3, CD4, CD8, B220, Gr-1, Mac-1 and TER-119, anti-Sca-1-PercpCy5.5, anti-CD48-PE and anti-CD150-APC (all from Biolegend). DAPI was used for dead-cell discrimination. Due to the presence of cytokine stem cell factor (SCF), we could not detect the c-Kit marker of those cultured cells. […] Flow cytometry and flow sorting were conducted with a CyAn (DakoCytomation) or a FACSCalibur system (BD Biosciences). FlowJo software Version 7.6.2 (TreeStar) was used for data analysis.
compound,measurement,setting,value
"O=C([O-])c1ccc(S(=O)(=O)NC2CCCCC2)cc1.[Na+] [Compound 40, sodium 4-(N-cyclohexylsulfamoyl)benzoate]",increase of nmEM colonies as compared to the control group,HSCs (CD34−LKS cells),3.16 fold
same,HSC frequency (1 in x of the original plated cells),HSCs (bone marrow MNCs),"37,524"
same,"frequency of HSC, fold higher than control group",HSCs (bone marrow MNCs),3.0 fold
same,increase of absolute number of Lin-Sca-1+ hematopoietic stem/progenitor cells (HSPC),[1],2.29 fold
same,increase of number of LT-HSCs (CD150+CD48− SLAM+),[1],2.61 fold
same,total cellularity (total cell),[1],slight increase
